In ChEMBL document CHEMBL1201862, “PubChem BioAssay data set” (2004):
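Results reflect a 48-hour exposure of cells in 96-well plates to compound at five concentrations. GI50 is the concentration that inhibits growth by half.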 Active and inactive are the calls of the source. Cut-off read from the data, not from the text of the source: active = GI50 up to about 1.1 µM and inactive = higher.

How the values were obtained:
Test in all cases: DTP human tumour cell line panel, 48 h
[1] = system: 786-0
[2] = system: A549
[3] = system: ACHN
[4] = system: CAKI-1
[5] = system: CCRF-CEM
[6] = system: COLO 205
[7] = system: DU-145
[8] = system: HCC 2998
[9] = system: HCT-116
[10] = system: HCT-15
[11] = system: HL-60
[12] = system: HOP-62
[13] = system: HT-29
[14] = system: Hs-578T
[15] = system: IGROV-1
[16] = system: K562
[17] = system: KM12
[18] = system: M14
[19] = system: MCF7
[20] = system: MDA-MB-435
[21] = system: NCI-H23
[22] = system: NCI-H460
[23] = system: NCI-H522
[24] = system: NCI/ADR-RES
[25] = system: OVCAR-3
[26] = system: OVCAR-4
[27] = system: SF-295
[28] = system: SF-539
[29] = system: SK-MEL-28
[30] = system: SK-MEL-2
[31] = system: SK-OV-3
[32] = system: SN12C
[33] = system: SNB-75
[34] = system: SR
[35] = system: SW-620
[36] = system: T47D
[37] = system: TK-10
[38] = system: U-251
[39] = system: UACC-62
[40] = system: UO-31
[41] = system: EKVX
[42] = system: LOX IMVI
[43] = system: MOLT-4
[44] = system: OVCAR-5
[45] = system: OVCAR-8
[46] = system: PC-3
[47] = system: RPMI-8226
[48] = system: SF-268
[49] = system: SK-MEL-5
[50] = system: SNB-19
[51] = system: UACC-257

In the case of `CC1(C)N=C(N)N=C(N)N1c1ccc(CCCCCCc2ccc(S(=O)(=O)F)cc2)cc1`, the GI50 [1] is reported as < 0.01 µM (active), the GI50 [2] is reported as < 0.0376 µM (active) and the GI50 [3] is reported as 0.274 µM (active). For the same molecule, the GI50 [4] was 12.3 µM (inactive), the GI50 [5] was < 0.01 µM (active) and the GI50 [6] was 0.144 µM (active). The GI50 [7] was 0.421 µM (active), the GI50 [8] was 2.23 µM (inactive) and the GI50 [9] was 0.017 µM (active). The GI50 [10] was 0.857 µM, the GI50 [11] was 0.132 µM (active) and the GI50 [12] was 1.19 µM (inactive). The GI50 [13] was < 0.0468 µM (active), the GI50 [14] was 2.18 µM (inactive) and the GI50 [15] was < 0.0395 µM (active). The GI50 [16] was < 0.0105 µM (active), the GI50 [17] was 0.276 µM (active) and the GI50 [18] was 1.24 µM (inactive). The GI50 [19] was 0.0828 µM (active), the GI50 [20] was 0.0557 µM (active) and the GI50 [21] was 0.0617 µM (active). The GI50 [22] was < 0.0229 µM (active), the GI50 [23] was 1.55 µM (inactive) and the GI50 [24] was 22.9 µM (inactive). The GI50 [25] was 0.247 µM (active), the GI50 [26] was 31.8 µM (inactive) and the GI50 [27] was 0.114 µM (active). The GI50 [28] was < 0.0189 µM (active), the GI50 [29] was 3.88 µM (inactive) and the GI50 [30] was 3.72 µM (inactive). For the same molecule, the GI50 [31] was 8.53 µM (inactive), the GI50 [32] was 0.028 µM (active) and the GI50 [33] was 3.36 µM (inactive). For the same molecule, the GI50 [34] was < 0.01 µM (active), the GI50 [35] was < 0.0211 µM (active) and the GI50 [36] was 8 µM (inactive). The GI50 [37] was 1.02 µM (active), the GI50 [38] was < 0.0352 µM (active) and the GI50 [39] was < 0.01 µM (active). For the same molecule, the GI50 [40] was 14.1 µM (inactive).

In the case of `O=C1OC(OCC#CCOC2OC(=O)C(Cl)=C2Cl)C(Cl)=C1Cl` (stereo not given), the GI50 [1] is reported as 4.86 µM (inactive), the GI50 [2] is reported as 18.4 µM (inactive) and the GI50 [3] is reported as 16.2 µM (inactive). The GI50 [5] was 1.92 µM (inactive), the GI50 [6] was 7.41 µM (inactive) and the GI50 [7] was 18.6 µM (inactive). The GI50 [41] was 20.1 µM (inactive), the GI50 [8] was 2.8 µM (inactive) and the GI50 [9] was 10.2 µM (inactive). The GI50 [10] was 5.85 µM, the GI50 [12] was 13.6 µM (inactive) and the GI50 [13] was 5.6 µM (inactive). The GI50 [14] was 13.2 µM (inactive), the GI50 [15] was 12.9 µM (inactive) and the GI50 [17] was 18.9 µM (inactive). The GI50 [42] was 2.65 µM (inactive), the GI50 [18] was 11.2 µM (inactive) and the GI50 [19] was 6.17 µM (inactive). For the same molecule, the GI50 [20] was 12.2 µM (inactive), the GI50 [43] was 2.43 µM (inactive) and the GI50 [21] was 15.6 µM (inactive). The GI50 [22] was 23.6 µM (inactive), the GI50 [23] was 1.7 µM (inactive) and the GI50 [24] was 19.5 µM (inactive). The GI50 [25] was 13.9 µM (inactive), the GI50 [44] was 16.6 µM (inactive) and the GI50 [45] was 4.31 µM (inactive). The GI50 [46] was 13.7 µM (inactive), the GI50 [47] was 3.57 µM (inactive) and the GI50 [48] was 18.2 µM (inactive). The GI50 [27] was 20.7 µM (inactive), the GI50 [28] was 16.5 µM (inactive) and the GI50 [29] was 15.3 µM (inactive). The GI50 [30] was 15.8 µM (inactive), the GI50 [49] was 18.2 µM (inactive) and the GI50 [32] was 17.3 µM (inactive). For the same molecule, the GI50 [50] was 16.1 µM (inactive), the GI50 [33] was 12.4 µM (inactive) and the GI50 [34] was 2 µM (inactive). For the same molecule, the GI50 [35] was 4.45 µM (inactive), the GI50 [36] was 10.7 µM (inactive) and the GI50 [37] was 9.16 µM (inactive). The GI50 [51] was 15 µM (inactive), the GI50 [39] was 14.2 µM (inactive) and the GI50 [40] was 11.6 µM (inactive).
